Measured values from patent US20230115176A1 (Ra Pharmaceuticals, Inc., priority 2019, published 2023).
pIC50: −log10 of the molar value.

The compounds below were run against T1, Human C5 (Homo sapiens, UniProt P01031) (assay: Red blood cell (RBC) hemolysis assay, luminescent (Example 13, Table 22)). Conditions: sheep EA cells, […] C5-depleted human serum, 0.5 nM human C5, 1 hour 37° C., luminescence.
T1 construct: purchased Complement Technology
Type: cell-based
Description: Compound CU0136 is a racemic mixture of Compound CU0186 and CU0187. Numbers in parenthesis following compound numbers indicate alternate enantiomers (as distinguished by retention time during chromatographical separation).
Further: 1.5% C5-depleted human serum.

T1 sequence (P01031 19-1676): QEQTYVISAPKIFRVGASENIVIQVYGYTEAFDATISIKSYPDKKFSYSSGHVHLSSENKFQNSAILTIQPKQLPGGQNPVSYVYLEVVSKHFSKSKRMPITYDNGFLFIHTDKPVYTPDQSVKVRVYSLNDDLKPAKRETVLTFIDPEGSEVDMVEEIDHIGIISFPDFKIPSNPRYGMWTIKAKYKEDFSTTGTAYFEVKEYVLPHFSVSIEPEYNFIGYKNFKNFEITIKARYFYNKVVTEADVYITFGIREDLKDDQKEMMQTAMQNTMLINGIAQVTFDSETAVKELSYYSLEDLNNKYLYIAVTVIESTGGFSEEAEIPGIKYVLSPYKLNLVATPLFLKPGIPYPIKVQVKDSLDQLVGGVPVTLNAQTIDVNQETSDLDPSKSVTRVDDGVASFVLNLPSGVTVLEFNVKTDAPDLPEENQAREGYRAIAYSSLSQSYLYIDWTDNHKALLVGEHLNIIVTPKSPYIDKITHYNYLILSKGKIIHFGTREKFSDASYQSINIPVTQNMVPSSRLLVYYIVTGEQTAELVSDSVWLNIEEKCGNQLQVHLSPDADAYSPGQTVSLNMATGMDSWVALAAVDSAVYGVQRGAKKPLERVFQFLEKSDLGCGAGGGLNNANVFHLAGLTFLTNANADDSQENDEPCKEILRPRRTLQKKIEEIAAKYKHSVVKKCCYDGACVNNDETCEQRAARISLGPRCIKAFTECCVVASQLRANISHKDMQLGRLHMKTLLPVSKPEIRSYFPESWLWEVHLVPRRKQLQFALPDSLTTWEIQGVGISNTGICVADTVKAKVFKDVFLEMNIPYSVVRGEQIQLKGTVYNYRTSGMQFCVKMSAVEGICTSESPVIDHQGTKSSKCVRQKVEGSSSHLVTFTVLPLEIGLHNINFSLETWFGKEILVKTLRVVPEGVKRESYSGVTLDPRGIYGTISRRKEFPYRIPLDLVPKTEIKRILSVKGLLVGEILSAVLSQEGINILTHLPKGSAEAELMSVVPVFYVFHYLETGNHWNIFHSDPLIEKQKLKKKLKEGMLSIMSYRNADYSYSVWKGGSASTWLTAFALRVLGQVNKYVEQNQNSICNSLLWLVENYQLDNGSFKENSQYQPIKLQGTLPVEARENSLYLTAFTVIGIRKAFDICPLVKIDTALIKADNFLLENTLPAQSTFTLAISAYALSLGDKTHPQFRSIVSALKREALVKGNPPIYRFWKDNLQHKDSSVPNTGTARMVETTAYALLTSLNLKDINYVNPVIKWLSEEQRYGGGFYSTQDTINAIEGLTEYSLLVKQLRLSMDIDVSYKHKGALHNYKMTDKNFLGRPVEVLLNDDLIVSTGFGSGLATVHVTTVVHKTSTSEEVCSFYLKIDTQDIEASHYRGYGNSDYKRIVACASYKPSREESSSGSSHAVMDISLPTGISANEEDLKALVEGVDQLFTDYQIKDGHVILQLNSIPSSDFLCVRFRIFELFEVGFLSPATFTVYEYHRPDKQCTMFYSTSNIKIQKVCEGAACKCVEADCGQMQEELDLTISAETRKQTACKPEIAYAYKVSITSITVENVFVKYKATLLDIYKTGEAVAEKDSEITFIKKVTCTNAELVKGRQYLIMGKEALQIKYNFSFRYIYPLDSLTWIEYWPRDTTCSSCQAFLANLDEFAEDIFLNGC

Row | Structure (SMILES) | pIC50
1 | CCCCCOc1cc(N2CCCN(Cc3cccc(C4=CCNCC4)c3F)C2=O)ccc1OC [CU0128] | 7.22
2 | CCCCCOc1cc(N2CCCN(Cc3ccc(F)c4c3ccn4CC(=O)N(C)C)C2=O)ccc1OC [CU0230] | 7.22
3 | CCCCCOc1cc(N2CCCN(Cc3ccnc4c3ccn4CCC3CCOCC3)C2=O)ccc1OC [CU0249] | 6.41
4 | COc1ccc(N2CCCN(Cc3ccnc4c3ccn4CC(=O)N(C)C)C2=O)cc1OCCCC(C)(F)F [CU0262] | 7.46
5 | COc1ccc(F)cc1CN1CCCN(c2ccc(OC)c(OCCc3ccc(C)cc3)c2)C1=O [CU0219] | 6.66
6 | COc1ccc(F)cc1CN1CCCN(c2ccc(OC)c(OCc3ccc(C)cc3)c2)C1=O [CU0180] | 6.39
7 | CCC(F)(F)CCOc1cc(N2CCCN(Cc3ccc(CC(=O)N(C)C)cc3OC)C2=O)ccc1OC [CU0171] | 7.35
8 | COc1ccc(F)cc1CN1CCCN(c2ccc(OC)c(OCCCC3CCCCC3)c2)C1=O [CU0222] | 7.16
9 | COc1cc(Cl)ccc1CN1CCCN(c2ccc(OC)c(OCc3ccccc3)c2)C1=O [CU0162] | 5.54
10 | CCCCCOc1cc(N2CCCN(Cc3cc(F)cc4c3ccn4CC(=O)N(C)C)C2=O)ccc1OC [CU0237] | 7.36
11 | CCCCCOc1cc(N2CCCN(Cc3ccnc4c3ccn4CCN3CCOC3=O)C2=O)ccc1OC [CU0250] | 6.66
12 | COc1ccc(F)cc1CN1CCCN(c2ccc(OC)c(OCC3CCCC3)c2)C1=O [CU0168] | 6.63
13 | CCCCCOc1cc(N2CCCN(Cc3ccc(CNC(=O)OC4CC4)cc3OC)C2=O)ccc1OC [CU0202] | 7.97
14 | COc1ccc(N2CCCN(Cc3ccnc4c3ccn4CC(=O)N(C)C)C2=O)cc1OCc1ccccc1 [CU0252] | 6.08
15 | COc1cc(CC(=O)NC2CCN(C(C)=O)C2)ccc1CN1CCCN(c2ccc(OC)c(OCCCC(C)(F)F)c2)C1=O (centres unmarked) [CU0142] | 7.74
16 | COc1ccc(F)cc1CN1CCCN(c2ccc(OC)c(OCCc3ccccc3C)c2)C1=O [CU0215] | 7.47
17 | CCCCCOc1cc(N2CCN(Cc3ccnc4c3ccn4CC(=O)N3CCNC(=O)C3)C2=O)ccc1OC [CU0058] | 5.60
18 | C#CCCCOc1cc(N2CCCN(Cc3cc(F)ccc3OC)C2=O)ccc1OC [CU0179] | 6.81
19 | CCCCCOc1cc(N2CCN(C[C@@H](O)c3ccccc3)C2=O)ccc1OC [CU0016] | 5.58
20 | CCCCCOc1cc(N2CCCN(Cc3ccc(CC(=O)O)cc3OC)C2=O)ccc1OC [CU0102] | 7.27
21 | CCCCCOc1cc(N2CCCN(Cc3ccc(CN(C)C(=O)OC)cc3OC)C2=O)ccc1OC [CU0149] | 7.62

Row | Structure (SMILES) | pIC50
22 | CCCCCOc1cc(N2CCCN(Cc3ccc(CCO)cc3OC)C2=O)ccc1OC [CU0159] | 7.01
23 | CCCCCOc1cc(N2CCCN(Cc3cccc(-c4cnn(C5CCN(C)CC5)c4)c3OC)C2=O)ccc1OC [CU0157] | 6.83
24 | COc1ccc(F)cc1CN1CCCN(c2ccc(OC)c(OCCc3cccc(C(F)(F)F)c3)c2)C1=O [CU0220] | 6.60
25 | CCCCCOc1cc(N2CCN(Cc3ccnc4c3ccn4CC(=O)N(C)C)C2=O)ccc1C1CC1 [CU0034] | 5.91
26 | CCCCCOc1cc(N2CCCN(Cc3ccc(Cl)cc3OC)C2=O)ccc1OC [CU0166] | 7.04
27 | CCCCCOc1cc(N2CCCN(Cc3ccc(CCn4cnnn4)cc3OC)C2=O)ccc1OC [CU0148] | 7.44
28 | CCCCCOc1cc(N2CCCN(Cc3ccc(CC(=O)N4CCCC4)cc3OC)C2=O)ccc1OC [CU0006] | 7.71
29 | CCCCCOc1cc(N2CCCN(Cc3ccc(F)c(-c4cnn(C5CCN(C)CC5)c4)c3)C2=O)ccc1OC [CU0150] | 7.06
30 | CCCCCOc1cc(N2CCCN(Cc3cccc4c3ccn4Cc3cccnc3)C2=O)ccc1OC [CU0023] | 7.68
31 | CCCCCOc1cc(N2CCCN(Cc3ccc(Cc4ncco4)cc3OC)C2=O)ccc1OC [CU0208] | 7.23
32 | COc1ccc(F)cc1CN1CCCN(c2ccc(OC)c(OCCC[C@H]3C[C@H]3C)c2)C1=O [CU0206] | 7.92
33 | CCCCCOc1cc(N2CCCN(Cc3cc(OC)cc(C4=CCNCC4)c3)C2=O)ccc1OC [CU0156] | 6.62
34 | CCCCCOc1cc(N2CCCN(Cc3ccc(CNC(=O)OC)cc3OC)C2=O)ccc1OC [CU0137] | 8.00
35 | COc1ccc(F)cc1CN1CCCN(c2ccc(OC)c(OCCCC(C)C)c2)C1=O [CU0217] | 7.74
36 | COc1ccc(F)cc1CN1CCCN(c2ccc(OC)c(OCC[C@@H]3C[C@@H]4CC[C@H]3C4)c2)C1=O [CU0184] | 7.49
37 | CCCCCOc1cc(N2CCCN(Cc3cccc4c3ccn4CC(=O)N(C)C3CCN(CC)C3)C2=O)ccc1OC (centres unmarked) [CU0242] | 8.09
38 | CCCCCOc1cc(N2CCCN([C@@H](C)c3cccc4c3ccn4CC(=O)N(C)C)C2=O)ccc1OC [CU0233] | 5.37
39 | CCCCCOc1cc(N2CCCN(Cc3cccc(N4CCN(C)CC4)c3F)C2=O)ccc1OC [CU0133] | 7.09
40 | C=CCCCOc1cc(N2CCCN(Cc3cc(F)ccc3OC)C2=O)ccc1OC [CU0167] | 7.40
41 | CCCCCOc1cc(N2CCCN(Cc3cccc(N4CCOCC4)c3F)C2=O)ccc1OC [CU0132] | 6.52
42 | CCCCCOc1cc(N2CCCN(Cc3ccc(CC(=O)N4CCCOCC4)cc3OC)C2=O)ccc1C1CC1 [CU0114] | 7.00

Row | Structure (SMILES) | pIC50
43 | CCCCCOc1cc(N2CCCN(Cc3cccc4c3ccn4CC(=O)N(C)C)C2=O)ccc1C1CC1 [CU0026] | 7.20
44 | COc1ccc(F)cc1CN1CCCN(c2ccc(OC)c(OCCC3CCCCC3)c2)C1=O [CU0216] | 7.57
45 | COc1ccc(F)cc1CN1CCCN(c2ccc(OC)c(OCCc3ccccc3)c2)C1=O [CU0193] | 7.35
46 | CCCCCOc1cc(N2CCCN(Cc3cccc(-c4cnn(CC(C)C)c4)c3F)C2=O)ccc1OC [CU0126] | 6.82
47 | CCCCCOc1cc(N2CCCN(C(C)c3ccnc4c3ccn4C3CCN(C)C3=O)C2=O)ccc1OC (centres unmarked) [CU0040(1)] | 7.18
48 | CCCCCOc1cc(N2CCCN(Cc3ccc(CCn4ccnc4)cc3OC)C2=O)ccc1OC [CU0139] | 7.04
49 | COc1ccc(F)cc1CN1CCCN(c2ccc(OC)c(OCCC[C@H]3C[C@@H]3C)c2)C1=O [CU0205] | 8.29
50 | CCCCCOc1cc(N2CCCN(Cc3ccc(CNC(=O)OCC)cc3OC)C2=O)ccc1OC [CU0192] | 7.72
51 | COc1cccc(COc2cc(N3CCCN(Cc4cc(F)ccc4OC)C3=O)ccc2OC)c1 [CU0227] | 6.44
52 | COc1cc(CC(=O)N2CCCOCC2)ccc1CN1CCCN(c2ccc(OC)c(OCCCC(C)(F)F)c2)C1=O [CU0146] | 7.90
53 | COc1ccccc1CN1CCCN(c2ccc(OC)c(OCCCC(C)(F)F)c2)C1=O [CU0143] | 7.63
54 | CCCCCOc1cc(N2CCCN(Cc3ccc(F)c(C4=CCNCC4)c3)C2=O)ccc1OC [CU0144] | 6.96
55 | CCCCCOc1cc(N2CCCN(Cc3cc(C4=CCNCC4)ccc3OC)C2=O)ccc1OC [CU0151] | 6.15
56 | CCCCCOc1cc(N2CCCN(Cc3cccc4nc(CC)oc34)C2=O)ccc1OC [CU0067] | 6.02
57 | CCC(F)(F)CCOc1cc(N2CCCN(Cc3ccc(CC(=O)N4CCO[C@H](COC)C4)cc3OC)C2=O)ccc1OC [CU0197] | 7.50
58 | CCCCCOc1cc(N2CCCN(Cc3ccnc4c3ccn4CCN3CCCC3)C2=O)ccc1OC [CU0254] | 7.73
59 | CCCCCOc1cc(N2CCCN(Cc3cccc(C4=CCNCC4)c3OC)C2=O)ccc1OC [CU0155] | 7.36
60 | COc1ccc(F)cc1CN1CCCN(c2ccc(OC)c(OCc3cccc(C)c3)c2)C1=O [CU0181] | 6.92
61 | COc1cc(F)ccc1CN1CCCN(c2ccc(OC)c(OCc3ccccc3)c2)C1=O [CU0163] | 6.00
62 | CCCCCOc1cc(N2CCCN(Cc3ccc(CCn4ccnn4)cc3OC)C2=O)ccc1OC [CU0147] | 7.33
63 | CCCCCOc1cc(N2CCCN(Cc3cccc(-c4cnn(C(C)OCC)c4)c3F)C2=O)ccc1OC (centres unmarked) [CU0125] | 7.13

Row | Structure (SMILES) | pIC50
64 | COc1ccc(F)cc1CN1CCCN(c2ccc(OC)c(OCC3CC4(CCC4)C3)c2)C1=O [CU0198] | 7.15
65 | COc1ccc(F)cc1CN1CCCN(c2ccc(OC)c(OCCCc3ccccc3)c2)C1=O [CU0183] | 6.62
66 | CCCCCOc1cc(N2CCCN(Cc3cccc4c3cc(C)n4CC(=O)N(C)C)C2=O)ccc1OC [CU0238] | 7.21
67 | CCCCCOc1cc(N2CCCN(Cc3ccc(CCOCCN4CCCC4)cc3OC)C2=O)ccc1OC [CU0189] | 6.38
68 | CCCCCOc1cc(N2CCN(Cc3ccnc4c3ccn4CC(=O)N3CCCOCC3)C2=O)ccc1OC [CU0052] | 7.21
69 | CCCCCOc1cc(N2CCCN(Cc3cc(-c4cnn(C5CCN(C)CC5)c4)ccc3OC)C2=O)ccc1OC [CU0152] | 6.84
70 | COc1ccc(F)cc1CN1CCCN(c2ccc(OC)c(OCc3cccc(C(F)(F)F)c3)c2)C1=O [CU0223] | 6.40
71 | CCCCCOc1cc(N2CCCN(Cc3ccccc3C3CC3)C2=O)ccc1OC [CU0015] | 6.28
72 | COc1cc(CC(=O)N(C)C)ccc1CN1CCCN(c2ccc(OC)c(OCc3ccccc3)c2)C1=O [CU0199] | 6.43
73 | CCCCCOc1cc(N2CCCN(C(C)c3ccnc4c3ccn4C3CCN(C)C3=O)C2=O)ccc1OC (centres unmarked) [CU0040(2)] | 7.12
74 | CCCCCOc1cc(N2CCCN(Cc3ccnc4c3ccn4CC(=O)N3CCCOCC3)C2=O)ccc1C1CC1 [CU0054] | 6.93
75 | CCCCCOc1cc(N2CCCN(Cc3cccc4nc(C)oc34)C2=O)ccc1OC [CU0066] | 6.61
76 | CCCCCOc1cc(N2CCCN(Cc3cccc4c3ccn4C3CCN(C4CC4)C3=O)C2=O)ccc1OC (centres unmarked) [CU0241] | 7.97
77 | CCCCCOc1cc(N2CCCN(Cc3ccc(F)cc3OC)C2=O)ccc1OC [CU0165] | 7.44
78 | CCC(F)(F)CCOc1cc(N2CCCN(Cc3ccc(CC(=O)N4CCCOCC4)cc3OC)C2=O)ccc1OC [CU0174] | 7.44
79 | CCCCCOc1cc(N2CCN(Cc3ccccc3Cl)C2=O)ccc1OC [CU0009] | 6.69
80 | CCCCCOc1cc(N2CCCN(Cc3ccc(CC#N)cc3OC)C2=O)ccc1OC [CU0210] | 7.48
81 | CCCCCOc1cc(N2CCCN(Cc3cccc(-c4cnn(C5COC5)c4)c3F)C2=O)ccc1OC [CU0119] | 7.28
82 | COc1ccc(N2CCCN(Cc3cccc4[nH]ccc34)C2=O)cc1OCCCC(C)(F)F [CU0240] | 7.37
83 | CCC(F)(F)CCOc1cc(N2CCCN(Cc3ccccc3OC)C2=O)ccc1OC [CU0176] | 6.95
